Reference: patent US20240360157A1, “TYK2 INHIBITORS” (BIOGEN MA INC., priority 2021, published 2024)

Experiments:
Assay type in all cases: biochemical
[1] = biological target: human JAK1 catalytic kinase (JH1) domain (Homo sapiens (Human), UniProt P23458); assay: ADP-Glo Kinase Assay, recombinant JAK1 catalytic kinase (JH1) domain; conditions: recombinant JH1 domain 4 nM, 35 μM ATP, JAK3-342 peptide, mean, read-out: JAK1 biochem IC50 (nM) Mean
Method in brief: (§1)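 ADP-Glo luminescence with 50 μM peptide and 100 min reactions: JAK1 4 nM with JAK3-342 peptide; JAK2, JAK3 and TYK2 at 0.2, 0.3 and 2 nM with JAK3-974 peptide. Compounds tested from 10 or 1 μM top, 11 points, 3-fold. IC50 from a 4-parameter logistic fit of normalized activity.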

[2] = biological target: human TYK2 catalytic kinase (JH1) domain (Homo sapiens (Human), UniProt P29597); assay: ADP-Glo Kinase Assay, recombinant TYK2 catalytic kinase (JH1) domain; conditions: recombinant JH1 domain 2 nM, 10 μM ATP, JAK3-974 peptide, mean, read-out: TYK2 biochem IC50 (nM) Mean
human TYK2 catalytic kinase (JH1) domain, sequence (P29597 897-1176): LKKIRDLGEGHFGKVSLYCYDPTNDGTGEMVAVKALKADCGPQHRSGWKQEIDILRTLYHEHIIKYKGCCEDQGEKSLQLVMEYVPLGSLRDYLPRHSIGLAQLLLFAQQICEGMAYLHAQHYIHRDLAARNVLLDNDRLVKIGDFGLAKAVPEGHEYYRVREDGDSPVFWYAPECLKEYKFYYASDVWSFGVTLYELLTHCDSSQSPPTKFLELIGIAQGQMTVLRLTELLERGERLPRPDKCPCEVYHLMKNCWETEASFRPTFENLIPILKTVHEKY
Method in brief: as §1

[3] = biological target: human JAK2 catalytic kinase (JH1) domain (Homo sapiens (Human), UniProt O60674); assay: ADP-Glo Kinase Assay, recombinant JAK2 catalytic kinase (JH1) domain; conditions: recombinant JH1 domain 0.2 nM, 15 μM ATP, JAK3-974 peptide, mean, read-out: JAK2 biochem IC50 (nM) Mean
human JAK2 catalytic kinase (JH1) domain, sequence (O60674 849-1124): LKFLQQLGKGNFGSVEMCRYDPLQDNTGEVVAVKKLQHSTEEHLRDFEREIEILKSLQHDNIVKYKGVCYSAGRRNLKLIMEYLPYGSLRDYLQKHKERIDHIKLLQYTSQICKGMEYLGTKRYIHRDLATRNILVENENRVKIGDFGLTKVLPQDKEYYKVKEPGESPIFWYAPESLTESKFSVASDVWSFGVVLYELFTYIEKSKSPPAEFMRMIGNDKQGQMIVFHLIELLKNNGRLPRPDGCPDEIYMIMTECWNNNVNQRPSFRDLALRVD
Method in brief: as §1

[4] = biological target: human JAK3 catalytic kinase (JH1) domain (Homo sapiens (Human), UniProt P52333); assay: ADP-Glo Kinase Assay, recombinant JAK3 catalytic kinase (JH1) domain; conditions: recombinant JH1 domain 0.3 nM, 4 μM ATP, JAK3-974 peptide, mean, read-out: JAK3 biochem IC50 (nM) Mean
human JAK3 catalytic kinase (JH1) domain, sequence (P52333 822-1111): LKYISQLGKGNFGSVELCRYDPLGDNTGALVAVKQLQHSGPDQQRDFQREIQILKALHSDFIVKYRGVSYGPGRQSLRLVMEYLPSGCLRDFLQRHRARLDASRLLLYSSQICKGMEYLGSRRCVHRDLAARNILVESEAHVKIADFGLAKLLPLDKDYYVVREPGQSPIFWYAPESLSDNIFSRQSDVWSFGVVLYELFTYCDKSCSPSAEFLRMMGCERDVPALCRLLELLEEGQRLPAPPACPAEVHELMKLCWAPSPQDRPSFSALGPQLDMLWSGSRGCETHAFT
Method in brief: as §1

human JAK1 catalytic kinase (JH1) domain, sequence (P23458 875-1153): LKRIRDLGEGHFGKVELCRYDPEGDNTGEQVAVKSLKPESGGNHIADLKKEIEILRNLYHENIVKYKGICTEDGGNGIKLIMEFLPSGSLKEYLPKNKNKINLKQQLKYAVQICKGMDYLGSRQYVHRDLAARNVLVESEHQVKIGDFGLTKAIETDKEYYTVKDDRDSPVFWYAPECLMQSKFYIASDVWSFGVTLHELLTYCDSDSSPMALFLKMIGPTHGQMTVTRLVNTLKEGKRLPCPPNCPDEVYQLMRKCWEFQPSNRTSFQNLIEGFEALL

Row | IC50 [1] [nM] | IC50 [2] [nM] | IC50 [3] [nM] | IC50 [4] [nM] | SMILES
1 | 23 | 9.5 | 48 | 515 | COc1cc(-c2cn3nccc(N4CC5CCC(C4)N5C(=O)[C@@H]4C[C@H]4F)c3n2)ccn1 [Example 248, ((1S,2R)-2-fluorocyclopropyl)(3-(2-(2-methoxypyridin-4-yl)imidazo[1,2-b]pyridazin-8-yl)-3,8-diazabicyclo[3.2.1]octan-8-yl)methanone]
2 | 1240 | 19 | 251 | 2810 | Cc1c(-c2cnn(C)c2)[nH]c2nccc(N3CC4CCC(C3)N4C(=O)[C@@H]3C[C@H]3F)c12 [Example 249, ((1S,2R)-2-fluorocyclopropyl)(3-(3-methyl-2-(1-methyl-1H-pyrazol-4-yl)-1H-pyrrolo[2,3-b]pyridin-4-yl)-3,8-diazabicyclo[3.2.1]octan-8-yl)methanone]
3 | 455 | 7.1 | 53 | 455 | Cn1cc(-c2[nH]c3nccc(N4CC5CCC(C4)N5C(=O)[C@@H]4C[C@H]4F)c3c2C#N)cn1 [Example 250, 4-(8-((1S,2R)-2-fluorocyclopropane-1-carbonyl)-3,8-diazabicyclo[3.2.1]octan-3-yl)-2-(1-methyl-1H-pyrazol-4-yl)-1H-pyrrolo[2,3-b]pyridine-3-carbonitrile]

Row | SMILES | IC50 [1] [nM] | IC50 [2] [nM] | IC50 [3] [nM] | IC50 [4] [nM]
4 | Cn1cc(-c2cc3nccc(N4CC5CCC(C4)N5C(=O)[C@@H]4C[C@H]4F)n3n2)cn1 [Example 251, ((1S,2R)-2-fluorocyclopropyl)(3-(2-(1-methyl-1H-pyrazol-4-yl)pyrazolo[1,5-a]pyrimidin-7-yl)-3,8-diazabicyclo[3.2.1]octan-8-yl)methanone] | 322 | 81 | 472 | 2920
5 | Cn1cc(-c2cn3nccc(N4CC5CCC(C4)N5C(=O)[C@@H]4C[C@H]4F)c3n2)cn1 [Example 252, ((1S,2R)-2-fluorocyclopropyl)(3-(2-(1-methyl-1H-pyrazol-4-yl)imidazo[1,2-b]pyridazin-8-yl)-3,8-diazabicyclo[3.2.1]octan-8-yl)methanone] | 28 | 4 | 28 | 269
